One assay deals with Pim-1 (Homo sapiens (Human), UniProt P11309). In words: Pim kinase binding activity assay (Example 901), PIM-1 enzyme, Caliper microfluidic peptide phosphorylation. Format: biochemical. To be noted: 20 pM PIM-1, 10 μM ATP, 1 μM FAM-peptide, 90 minutes at room temperature. Summed up:
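PIM-1 at 20 pM phosphorylated 1 μM FAM-labelled Pim peptide with 10 μM ATP in HEPES pH 7.2, MgCl2, Tween 20 and DTT for 90 min at room temperature. EDTA stopped the reaction, and product and substrate were resolved by microfluidic electrophoresis (ex 488/em 530 nm). Ki was derived from substrate conversion.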

The subject of the next assay is BaF3 parental cells. In words: In vitro cell proliferation potency assay, BaF3 parental line with IL-3 (Cell Titer Glo). The assay is classed as cell-based, murine. To be noted: Mus musculus, 2 ng/mL mIL-3, incubated overnight, read-out: Prolif. BaF3 IL3 (IC50). The method, then:
(§1) In Vitro Cell Proliferation Potency Assays
(§2) BaF3 parental line was obtained from the DSMZ repository. BaF3 lines transfected with PIM-1 or PIM-2 were generated. Mouse IL-3 was purchased from R&D Systems. G418 was purchased from Clontech. Media for BaF3 parental line contained RPMI, 10% FBS, 2 mM L-Glutamine, 2 ng/mL mIL-3. Media for BaF3 PIM1 & 2 lines contained RPMI, 10% FBS, 2 mM L-Glutamine, […]. Media for MM1.S (multiple myeloma cells) line contained RPMI, 10% FBS, 2 mM L-Glutamine.
(§3) BaF3, a murine interleukin-3 dependent pro-B cell line, parental cells, BaF3 PIM1 cells, BaF3 PIM-2 cells, and MM1.S (multiple myeloma) cells were seeded at 2 k/well, 5 k/well, 5 k/well, and 10 k/well respectively, in a 384-well plate, at 45 μL/well. Test compound was added at 5 μL/well. BaF3 cells (parental and transfected) were incubated overnight, while MM1.S cells were incubated for 72 hours at 37° C., 5% CO2. Cell Titer Glo Reagent (Promega) was added at 50 μL/well, the plates were incubated for 30 minutes, and their luminescence read on an HT Analyst. IC50/EC50 values for the test compound were calculated.

For another assay, the system named is BaF3 PIM1 cells. Nature of the assay: In vitro cell proliferation potency assay, BaF3 line transfected with PIM-1 (Cell Titer Glo). The assay is classed as cell-based, murine. The following applies: Mus musculus, incubated overnight, read-out: Prolif. BaF3 PIM-1 (IC50). As to the method:
as §1
BaF3 parental line was obtained from the DSMZ repository. […] Mouse IL-3 was purchased from R&D Systems. G418 was purchased from Clontech. Media for BaF3 parental line contained RPMI, 10% FBS, 2 mM L-Glutamine, 2 ng/mL mIL-3. Media for BaF3 PIM1 & 2 lines contained RPMI, 10% FBS, 2 mM L-Glutamine, […]. Media for MM1.S (multiple myeloma cells) line contained RPMI, 10% FBS, 2 mM L-Glutamine.
as §3

In assay [1] the test system is MM1.S (multiple myeloma) cells. In words: In vitro cell proliferation potency assay, MM1.S cells (Cell Titer Glo). Format: cell-based. To be noted: Homo sapiens, 72 hours, read-out: Prolif. MM1S ATP (EC50). As to the method: as §1, §2, §3
A general note: Cellular ATP, detected with luciferase, serves as a proxy for viable cell number.

Pim-1, sequence (P11309 whole entry): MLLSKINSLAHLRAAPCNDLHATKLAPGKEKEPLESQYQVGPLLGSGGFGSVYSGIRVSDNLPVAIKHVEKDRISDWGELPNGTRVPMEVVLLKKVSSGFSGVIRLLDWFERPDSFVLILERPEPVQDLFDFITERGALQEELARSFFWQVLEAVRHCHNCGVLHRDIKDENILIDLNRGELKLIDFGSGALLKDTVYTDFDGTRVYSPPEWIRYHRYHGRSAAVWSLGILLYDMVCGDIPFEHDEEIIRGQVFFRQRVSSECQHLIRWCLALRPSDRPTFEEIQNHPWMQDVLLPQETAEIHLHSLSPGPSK

At Pim-1, `Cn1cc(-c2cc3c(-c4ccc(Br)c(N5CCC[C@H](N)C5)n4)n[nH]c3cn2)cn1` [Example 376, (S)-1-(3-bromo-6-(5-(1-methyl-1H-pyrazol-4-yl)-1H-pyrazolo[3,4-c]pyridin-3-yl)pyridin-2-yl)piperidin-3-amine] had a Ki of 0.009 nM. Moreover, the IC50 worked out at 4.1 µM in the assay on BaF3 parental cells and 30.9 nM in the assay on BaF3 PIM1 cells. Moreover, in assay [1], the EC50 amounted to 356 nM.
With `CCn1cc(-c2cc3c(-c4cccc(N5CCC[C@H](NC)C5)n4)n[nH]c3cn2)cn1` [Example 377, (S)-1-(6-(5-(1-ethyl-1H-pyrazol-4-yl)-1H-pyrazolo[3,4-c]pyridin-3-yl)pyridin-2-yl)-N-methylpiperidin-3-amine], the affinity on Pim-1 corresponds to a Ki of 0.08 nM. The values for the IC50 in the assay on BaF3 parental cells and with BaF3 PIM1 cells were 5.3 µM and 63.7 nM, respectively. Also, the EC50 in assay [1] stood at 230 nM.
The molecule `CC(C)Cn1cc(-c2cc3c(-c4cccc(N5CCNCC5)n4)n[nH]c3cn2)cn1` [Example 381, 5-(1-isobutyl-1H-pyrazol-4-yl)-3-(6-(piperazin-1-yl)pyridin-2-yl)-1H-pyrazolo[3,4-c]pyridine] gave a Ki at Pim-1 of 0.057 nM. The IC50 was 2.2 µM in the assay on BaF3 parental cells and 129 nM in the assay on BaF3 PIM1 cells. Besides, the EC50 in assay [1] was 228 nM.
In the case of `Cn1cc(-c2cc3c(-c4cccc(N5CCCC(C)(O)C5)n4)n[nH]c3cn2)cn1` (stereo not drawn) [Example 383, 3-methyl-1-(6-(5-(1-methyl-1H-pyrazol-4-yl)-1H-pyrazolo[3,4-c]pyridin-3-yl)pyridin-2-yl)piperidin-3-ol], affinity on Pim-1 was put at a Ki of 0.078 nM. Moreover, the results for the IC50 in the assay with BaF3 parental cells and in the assay with BaF3 PIM1 cells were 1.3 µM and 110 nM, respectively. Besides, the EC50 in assay [1] worked out at 170 nM.
For `c1cc(-c2n[nH]c3cnc(-c4cnn(C5CCC5)c4)cc23)nc(N2CCNCC2)c1` [Example 390, 5-(1-cyclobutyl-1H-pyrazol-4-yl)-3-(6-(piperazin-1-yl)pyridin-2-yl)-1H-pyrazolo[3,4-c]pyridine], in that order: 0.132 nM, 5.7 µM, 58.5 nM and 130 nM.
For `Cc1cncc(-c2cc3c(-c4cccc(N5CCNCC5)n4)n[nH]c3cn2)n1` [Example 505, 5-(6-methylpyrazin-2-yl)-3-(6-(piperazin-1-yl)pyridin-2-yl)-1H-pyrazolo[3,4-c]pyridine], in that order: 0.01 nM, 2.3 µM, 40.2 nM and 97.9 nM.

For orientation: Ki means the dissociation constant of the complex between target and ligand, obtained from inhibition or displacement. The term IC50 denotes the concentration at which inhibition is half-maximal. For orientation: EC50 means the concentration giving half of the maximal effect.

Values taken from patent US9260425B2 (Genetech, Inc., priority 2011, dated 2016).
